{"source": "patent US11317631B2", "about": "“Natamycin compositions and uses thereof” (Arec Crop Protection B.V., priority 2016, dated 2022)", "key": {"[1]": {"assay": "BET surface area analysis", "format": "physicochemical", "design": "BET analysis: dose or concentration left out as unconfirmed", "conditions": "for BET analysis: milled to a particle size of 2 μm; for BET: batches of Table 20", "protocol": "Surface area may be measured by any suitable methods or techniques known in the art. For example, with respect to the variations described above, the surface area is measured by BET (also known in the art as Brunauer, Emmett and Tellers analysis theory). Using BET analysis, the surface area of the natamycin composition may be determined by physical adsorption of nitrogen (N2) gas on the surface of the natamycin composition, which is a solid. The value of the BET analysis is expressed as m^2 per gram of solid material.\nBrunauer, Emmett, and Tellers (BET) analysis theory was used to determine the surface area (expressed as m^2/g) for Natamycin Composition A and Control Natamycin. Each sample was milled to a particle size of […] prior to BET analysis."}, "[2]": {"assay": "Saturation studies: dissolution in water with 5% polysorbate 80, HPLC peak areas", "format": "physicochemical", "conditions": "water + 5% polysorbate 80, 22° C.", "protocol": "Saturation studies were performed on Natamycin Composition A and Control Natamycin, both at 25% (w/w %) suspension in water. […] To prepare the samples for solubility analysis, a plastic pipet was used to add 3 drops (0.25 mL) of thoroughly shaken formulation to 10 mL of the dissolution medium. […] Then, 0.05 mL of the mobile phase was added to 0.25 mL of the filtrated natamycin aliquot. The aliquots were then injected individually onto a high performance liquid chromatography (HPLC) column and the resulting peak areas were calculated. […] The column temperature was set to 25° C. and the natamycin was detected at a wavelength of 304 nm."}, "[3]": {"assay": "Liquid phase concentration of natamycin in the suspensions (centrifugation, HPLC)", "format": "physicochemical", "conditions": "supernatant of suspension in water", "protocol": "The supernatants were then collected and diluted 10-fold with an acetonitrile:water (3:7) solution. The concentration of natamycin in the liquid layer was then determined by injecting the samples individually onto an HPLC and comparing the UV-Vis absorption to that of a standard natamycin stock solution."}, "Fusarium graminearum": {"tested_on": "Fusarium graminearum", "format": "in vivo", "conditions": "for Average Vigor: 0-10 scale"}, "Saccharomyces cerevisiae [4]": {"tested_on": "Saccharomyces cerevisiae", "assay": "Bioavailability: filter disc inhibition zone on yeast agar plates (Examples 15 and 16)", "format": "cell-based", "conditions": "10 μl of 3 mM natamycin", "protocol": "Saccharomyces cerevisiae (at least 10^5 cfu/ml) was distributed on Petri dishes with a diameter of 145 mm containing 30 ml Potato Dextrose Agar (PDA; Carl Roth; pH of about 6) using sterilized swabs. […] Following the application of a filter, Petri dishes were incubated for 16 h h in a refrigerator at 4° C. to allow diffusion of natamycin into the agar. After 16 h the filter discs were removed from the agar and the Petri dishes were incubated upside down in a stove at 30° C. […] After 24 h incubation in the stove the size of the inhibition zone was determined using a digital caliper gauge. The data are presented as square mm and are an average of six replicas. The effect of 3 mM natamycin on yeast growth in Petri dishes was determined as described herein above. Numbers represent surface of inhibition zones expressed in square mm. Same methods as described above in Example 15. The effect of 3 mM natamycin on yeast growth in Petri dishes was determined as described herein above, unless otherwise indicated."}, "Saccharomyces cerevisiae [5]": {"tested_on": "Saccharomyces cerevisiae", "assay": "Bioavailability: filter disc inhibition zone, disc moved to a new plate after 24 h (Example 17)", "format": "cell-based", "conditions": "50 μl of 3 mM natamycin", "protocol": "Saccharomyces cerevisiae (at least 10^5 cfu/ml) was distributed on Petri dishes with a diameter of 90 mm containing 10 ml PDA agar (Carl Roth, pH about 6) using sterilized swabs. Filter paper discs (Whatman) with a diameter of 6 mm were loaded with 50 μl of a solution containing a concentration of 3 mM natamycin. The size of the inhibition zone is a result of the natamycin released from the sample disc. After 24 h of incubation in the stove the size of the inhibition zone was measured using a digital caliper gauge. After measuring, the filter discs were removed and replaced on a new Petri dish similar to the previous one (90 mm containing 10 ml PDA agar and Saccharomyces cerevisiae (at least 10^5 cfu/ml) distributed by swabs). 24 hours after the replacement of the filters, the inhibition zone was measured again. The data are presented as square mm and are an average of four replicas."}, "Botrytis cinerea": {"tested_on": "Botrytis cinerea", "assay": "Botrytis on wounded apples (Examples 18 to 20)", "format": "in vivo", "protocol": "Tested fruit: apples […] from organic origin/SKAL certified. SKAL is a semi-governmental Dutch organization that controls organic production in the Netherlands. Wounds of the apples were checked at day 3. Natamycin with different proteins and starch contents were tested at a natamycin concentration of 100 ppm. Used pathogen: Botrytis cinerea spore-suspension containing 2*10^6 spores/ml. Application: The fruit peel of the apple was damaged with a cork borer, ø 4 mm and depth 0.5 cm into the fruit, with 2 wounds per apple. 40 microliter of a freshly prepared spore suspension of B. cinerea was applied by pipette onto each wound. Subsequently, the spore-suspension was allowed to air-dry for 4 hours. Then, 50 microliter of a treatment as presented in the list above was applied by pipette to each wound. All fruits were kept at room temperature (20° C.). Wounds of the apples were checked after 3 days of incubation. The efficacy was calculated by measuring the surface area (square mm) of the rot on the apples compared to the untreated control (see Tables 31 and 32). Replicates: All treatments for the apple experiment were performed on six individual apples with two wounds each resulting in 12 wounds per treatment. This experiment was performed as described in Example 18. This experiment was performed as described in Example 19. Natamycin A and Natamycin E were used at different concentrations and data were recorded at different time points, as is indicated in Table 35."}, "[6]": {"assay": "Average particle size of natamycin batches (Example 14)", "format": "physicochemical", "conditions": "batches of Table 20", "from_the_text": "Methods for determining the average size of particles in a composition are known to the skilled person. For example, Hukkanen and Braatz, 2003. Sensors and Actuators B 96: 451-459, discuss varies methods that can be used for determining the average particle size in a composition, including forward light scattering and ultrasonic extinction. A preferred method is sieve analysis or laser diffraction analysis, for example using a Analysette 22-MicroTec plus laser-particle-sizer (Fritsch, Idar-Oberstein, Germany).\nSeveral batches of crude natamcyin, prepared as described herein above, and commercial batches of purified natamycin (95%) were obtained and analysed."}}, "note": "Like-named read-outs stand apart in the source and are kept apart here."}
{"compound": "C[C@@H]1C/C=C/C=C/C=C/C=C/[C@H](O[C@@H]2O[C@H](C)[C@@H](O)[C@H](N)[C@@H]2O)C[C@@H]2O[C@](O)(C[C@@H](O)C[C@H]3O[C@@H]3/C=C/C(=O)O1)C[C@H](O)[C@H]2C(=O)O", "note": "[Control Natamycin, comprising natamycin F]", "values": [{"measurement": "BET analysis", "setting": "[1]", "value": 9.4, "unit": "m^2/g"}]}
{"compound": "C[C@@H]1C/C=C/C=C/C=C/C=C/[C@H](O[C@@H]2O[C@H](C)[C@@H](O)[C@H](N)[C@@H]2O)C[C@@H]2O[C@](O)(C[C@@H](O)C[C@H]3O[C@@H]3/C=C/C(=O)O1)C[C@H](O)[C@H]2C(=O)O", "note": "[Control Natamycin, comprising natamycin batch # 140206]", "values": [{"measurement": "BET analysis", "setting": "[1]", "value": 7.7, "unit": "m^2/g"}]}
{"compound": "C[C@@H]1C/C=C/C=C/C=C/C=C/[C@H](O[C@@H]2O[C@H](C)[C@@H](O)[C@H](N)[C@@H]2O)C[C@@H]2O[C@](O)(C[C@@H](O)C[C@H]3O[C@@H]3/C=C/C(=O)O1)C[C@H](O)[C@H]2C(=O)O", "note": "[Control Natamycin, natamycin]", "values": [{"measurement": "HPLC peak area", "setting": "[2]; 20 s", "value": 3966, "unit": "mAUs"}, {"measurement": "HPLC peak area", "setting": "[2]; 60 s", "value": 4077, "unit": "mAUs"}, {"measurement": "HPLC peak area", "setting": "[2]; 300 s", "value": 4005, "unit": "mAUs"}, {"measurement": "Natamycin in the liquid phase", "setting": "[3]", "value": 68, "unit": "µg/mL"}, {"measurement": "average BET surface area", "setting": "[1]; average of the trials of Table 4", "value": 8.5, "unit": "m^2/g"}, {"measurement": "Number of plants at last count", "setting": "Fusarium graminearum; 2.5 g AI/100 kg", "value": 47}, {"measurement": "Plant loss", "setting": "Fusarium graminearum; 2.5 g AI/100 kg", "value": 52, "unit": "%"}, {"measurement": "Average Vigor", "setting": "Fusarium graminearum; 2.5 g AI/100 kg", "value": 7.9}, {"measurement": "Number of plants at last count", "setting": "Fusarium graminearum; 5 g AI/100 kg", "value": 45}, {"measurement": "Plant loss", "setting": "Fusarium graminearum; 5 g AI/100 kg", "value": 52, "unit": "%"}, {"measurement": "Average Vigor", "setting": "Fusarium graminearum; 5 g AI/100 kg", "value": 7.8}, {"measurement": "Number of plants at last count", "setting": "Fusarium graminearum; 10 g AI/100 kg", "value": 36}, {"measurement": "Plant loss", "setting": "Fusarium graminearum; 10 g AI/100 kg", "value": 62, "unit": "%"}, {"measurement": "Average Vigor", "setting": "Fusarium graminearum; 10 g AI/100 kg", "value": 7.5}, {"measurement": "Number of plants at last count", "setting": "Fusarium graminearum; 20 g AI/100 kg", "value": 45}, {"measurement": "Plant loss", "setting": "Fusarium graminearum; 20 g AI/100 kg", "value": 52, "unit": "%"}, {"measurement": "Average Vigor", "setting": "Fusarium graminearum; 20 g AI/100 kg", "value": 7.7}]}
{"compound": "C[C@@H]1C/C=C/C=C/C=C/C=C/[C@H](O[C@@H]2O[C@H](C)[C@@H](O)[C@H](N)[C@@H]2O)C[C@@H]2O[C@](O)(C[C@@H](O)C[C@H]3O[C@@H]3/C=C/C(=O)O1)C[C@H](O)[C@H]2C(=O)O", "note": "[Natamycin 140206, natamycin]", "values": [{"measurement": "BET", "setting": "[1]", "value": 7.73, "unit": "m^2/g"}, {"measurement": "Inhibition zone", "setting": "Saccharomyces cerevisiae [4]; Table 22", "value": 167, "unit": "mm^2"}]}
{"compound": "C[C@@H]1C/C=C/C=C/C=C/C=C/[C@H](O[C@@H]2O[C@H](C)[C@@H](O)[C@H](N)[C@@H]2O)C[C@@H]2O[C@](O)(C[C@@H](O)C[C@H]3O[C@@H]3/C=C/C(=O)O1)C[C@H](O)[C@H]2C(=O)O", "note": "[Natamycin E, natamycin]", "values": [{"measurement": "Inhibition zone", "setting": "Saccharomyces cerevisiae [4]; Table 24", "value": 242, "unit": "mm2"}, {"measurement": "Inhibition zone", "setting": "Saccharomyces cerevisiae [4]; Table 26", "value": 188, "unit": "mm2"}, {"measurement": "Inhibition zone", "setting": "Saccharomyces cerevisiae [4]; Table 27", "value": 179, "unit": "mm2"}, {"measurement": "Inhibition zone", "setting": "Saccharomyces cerevisiae [4]; Table 28", "value": 110, "unit": "mm2"}, {"measurement": "Inhibition zone", "setting": "Saccharomyces cerevisiae [5]; 24 h", "value": 480, "unit": "mm^2"}, {"measurement": "Inhibition zone", "setting": "Saccharomyces cerevisiae [5]; 48 h (disc replaced on a new plate after 24 h)", "value": 298, "unit": "mm^2"}, {"measurement": "Efficacy", "setting": "Botrytis cinerea; Table 32, 100 ppm natamycin, day 3", "value": 54, "unit": "%"}, {"measurement": "Efficacy", "setting": "Botrytis cinerea; Table 34, day 3", "value": 75, "unit": "%"}, {"measurement": "Efficacy", "setting": "Botrytis cinerea; Table 34, day 5", "value": 58, "unit": "%"}, {"measurement": "Efficacy", "setting": "Botrytis cinerea; Table 34, day 7", "value": 53, "unit": "%"}, {"measurement": "Efficacy", "setting": "Botrytis cinerea; Table 34, day 9", "value": 42, "unit": "%"}, {"measurement": "Efficacy", "setting": "Botrytis cinerea; Table 35, 100 ppm, day 3", "value": 84, "unit": "%"}, {"measurement": "Efficacy", "setting": "Botrytis cinerea; Table 35, 100 ppm, day 5", "value": 41, "unit": "%"}, {"measurement": "Efficacy", "setting": "Botrytis cinerea; Table 35, 100 ppm, day 7", "value": 12, "unit": "%"}, {"measurement": "Efficacy", "setting": "Botrytis cinerea; Table 35, 2000 ppm, day 3", "value": 100, "unit": "%"}, {"measurement": "Efficacy", "setting": "Botrytis cinerea; Table 35, 2000 ppm, day 5", "value": 62, "unit": "%"}, {"measurement": "Efficacy", "setting": "Botrytis cinerea; Table 35, 2000 ppm, day 7", "value": 50, "unit": "%"}, {"measurement": "D0.5 (average particle size of the particles)", "setting": "[6]", "value": 14.4, "unit": "μm"}]}
{"compound": "C[C@@H]1C/C=C/C=C/C=C/C=C/[C@H](O[C@@H]2O[C@H](C)[C@@H](O)[C@H](N)[C@@H]2O)C[C@@H]2O[C@](O)(C[C@@H](O)C[C@H]3O[C@@H]3/C=C/C(=O)O1)C[C@H](O)[C@H]2C(=O)O", "note": "[Natamycin F, natamycin]", "values": [{"measurement": "BET", "setting": "[1]", "value": 9.36, "unit": "m^2/g"}, {"measurement": "Inhibition zone", "setting": "Saccharomyces cerevisiae [4]; Table 21, 16 h 4° C. then 24 h 30° C.", "value": 183, "unit": "mm^2"}, {"measurement": "Inhibition zone", "setting": "Saccharomyces cerevisiae [4]; Table 25", "value": 142, "unit": "mm2"}, {"measurement": "Inhibition zone", "setting": "Saccharomyces cerevisiae [4]; Table 29", "value": 100, "unit": "mm2"}, {"measurement": "Efficacy", "setting": "Botrytis cinerea; Table 33, 100 ppm natamycin, day 3", "value": 60.2, "unit": "%"}, {"measurement": "D0.5 (average particle size of the particles)", "setting": "[6]", "value": 15.3, "unit": "μm"}]}
